# Calls of active or inactive are those of the source.
# Key:
# Protein RecA = target: T1, Protein RecA (Mycobacterium tuberculosis, UniProt P9WHJ3); test: Fluorescence Cell-Free Homogeneous Dose Retest to Identify Inhibitors of RecA-Intein Splicing Activity. [Related pubchem assays (depositor defined):AID2097, AID2223, AID489010, AID492950]; format: functional
# T1 sequence (P9WHJ3 whole entry): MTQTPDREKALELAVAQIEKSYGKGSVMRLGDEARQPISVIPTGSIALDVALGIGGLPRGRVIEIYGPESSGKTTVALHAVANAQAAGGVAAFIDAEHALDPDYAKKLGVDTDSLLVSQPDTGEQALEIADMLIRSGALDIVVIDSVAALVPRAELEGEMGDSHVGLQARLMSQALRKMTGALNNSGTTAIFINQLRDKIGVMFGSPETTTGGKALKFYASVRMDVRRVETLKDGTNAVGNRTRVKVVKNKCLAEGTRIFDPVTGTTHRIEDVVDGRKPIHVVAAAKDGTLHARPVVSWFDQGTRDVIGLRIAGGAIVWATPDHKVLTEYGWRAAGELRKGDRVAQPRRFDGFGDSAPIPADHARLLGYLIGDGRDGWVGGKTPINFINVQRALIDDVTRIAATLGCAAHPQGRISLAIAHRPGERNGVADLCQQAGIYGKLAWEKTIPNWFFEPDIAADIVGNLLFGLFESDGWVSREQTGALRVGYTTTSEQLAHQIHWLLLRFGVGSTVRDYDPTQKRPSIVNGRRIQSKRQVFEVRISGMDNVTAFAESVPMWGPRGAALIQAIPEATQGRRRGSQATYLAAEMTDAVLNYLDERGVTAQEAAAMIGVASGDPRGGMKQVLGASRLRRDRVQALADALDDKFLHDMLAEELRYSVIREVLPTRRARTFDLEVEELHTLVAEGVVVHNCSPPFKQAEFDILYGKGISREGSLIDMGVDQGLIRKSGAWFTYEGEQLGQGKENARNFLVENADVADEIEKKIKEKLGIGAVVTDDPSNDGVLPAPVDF
# [1] = general cell-killing toxicity readout – plate reader, dry powder samples, cytotoxicity control for PAX8 inhibitor project, dose response (AID 743021); format: functional, cell-based
# BJ [2] = test: BJ-TERT-LT-ST fibroblast viability loss – cell-based, RAS-independent, luminescence, dose response (AID 1935); format: functional; conditions: Homo sapiens;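 further: BJ fibroblasts immortalized with TERT plus LT and ST oncogenes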
# [3] = Intein inhibitors as potential Tuberculosis drugs, a cytotoxicity screen. [Related pubchem assays (depositor defined):AID2221, AID2223, AID434968, AID435010, AID449749, AID449750, AID489010]; format: functional
# Paired box protein Pax-8 = Paired box protein Pax-8 (Homo sapiens, UniProt Q06710); test: PAX8 transcriptional activity inhibition in RMG-I – RMG-I cells, luciferase, cherry-pick, dose response (AID 687027); format: functional, cell-based;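 further: luciferase reporter driven by Pax8 target thyroperoxidase promoter measured by SteadyGlo luminescence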
# BJ [4] = test: cells; format: functional, cell-based; conditions: Homo sapiens
# [5] = viability of PTEN-deleted HCT116 cells – cell-based, HCT116 PTEN knockout, dose response (AID 1047); format: functional;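 further: HCT116 colon tumor cells with PTEN knocked out; cells exposed to compound for 60 hours before readout; potency for loss of cell viability measured by luminescence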
# BJ [6] = test: growth inhibition of engineered Ras-driven BJ cells – cell-based, alamar blue fluorescence, cherrypicked samples, dose response (AID 2631); format: functional; conditions: Homo sapiens;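 further: confirmatory dose-response assay in RAS-dependent BJ fibroblasts engineered with TERT, LT and ST, with cytotoxicity read by fluorescence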
# [7] = target: T2, Replicative DNA helicase DnaB (Mycobacterium tuberculosis, UniProt P9WMR3); test: DnaB intein splicing inhibitors, dose response, biochemical, cell-free fluorescence (AID 449749); format: functional
# T2 sequence (P9WMR3 whole entry): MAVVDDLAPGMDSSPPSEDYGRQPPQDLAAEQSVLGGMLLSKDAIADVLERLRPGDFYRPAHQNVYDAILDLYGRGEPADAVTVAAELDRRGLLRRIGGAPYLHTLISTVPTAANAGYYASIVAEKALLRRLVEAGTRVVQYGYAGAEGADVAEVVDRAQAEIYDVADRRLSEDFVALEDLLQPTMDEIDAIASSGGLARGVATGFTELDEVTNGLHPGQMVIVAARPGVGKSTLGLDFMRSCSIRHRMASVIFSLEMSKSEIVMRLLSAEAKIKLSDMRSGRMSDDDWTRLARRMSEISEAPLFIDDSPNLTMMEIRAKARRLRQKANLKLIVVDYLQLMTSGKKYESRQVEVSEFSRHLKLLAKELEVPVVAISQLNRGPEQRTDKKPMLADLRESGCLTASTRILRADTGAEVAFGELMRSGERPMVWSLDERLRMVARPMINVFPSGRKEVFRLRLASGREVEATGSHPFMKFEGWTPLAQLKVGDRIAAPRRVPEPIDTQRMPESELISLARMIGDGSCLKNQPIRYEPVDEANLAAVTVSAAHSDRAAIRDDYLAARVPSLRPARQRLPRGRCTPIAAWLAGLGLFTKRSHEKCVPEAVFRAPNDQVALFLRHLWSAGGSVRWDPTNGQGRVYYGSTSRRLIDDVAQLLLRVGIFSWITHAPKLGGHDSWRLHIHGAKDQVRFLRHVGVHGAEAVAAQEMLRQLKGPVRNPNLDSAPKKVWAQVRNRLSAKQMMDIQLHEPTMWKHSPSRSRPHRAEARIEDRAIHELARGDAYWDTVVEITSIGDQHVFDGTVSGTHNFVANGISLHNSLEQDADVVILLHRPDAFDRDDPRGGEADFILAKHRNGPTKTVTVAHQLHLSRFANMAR
# [8] = viability of HCT116 lacking mutant beta-catenin – cell-based, human colon tumor, dose response (AID 1045); format: functional;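 further: HCT116 colon tumor cells with beta catenin knocked out; cells exposed to compound for 60 hours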
# BJ [9] = test: BJ-TERT fibroblast viability loss – cell-based, RAS-independent, luminescence, dose response (AID 1933); format: functional; conditions: Homo sapiens
# [10] = DRD fibroblast viability loss – cell-based, non-viral oncogenic, luminescence, dose response (AID 1934); format: functional; conditions: Homo sapiens
# [11] = target: T3, Voltage-gated N-type calcium channel alpha-1B subunit/Amyloid beta A4 precursor protein-binding family A member 1 (Homo sapiens, UniProt Q00975+Q02410); format: protein assay
# [12] = target: T3, Voltage-gated N-type calcium channel alpha-1B subunit/Amyloid beta A4 precursor protein-binding family A member 1; format: protein assay; remark: listed apart in the source
# [13] = target: T4, Kappa-type opioid receptor (Homo sapiens, UniProt P41145); test: SAR analysis of small molecule antagonists of the kappa opioid receptor via a luminescent beta-arrestin assay - Set 3. [Related pubchem assays (depositor defined):AID1777, AID1778, AID1785, AID1786, AID1966, AID2133, AID2136, AID2285, AID2495]; format: functional
# [14] = target: T4, Kappa-type opioid receptor; test: SAR analysis of Antagonists of the Kappa Opioid Receptor (KOR) using an Image-Based Assay - Set 4. [Related pubchem assays (depositor defined):AID1777, AID1785]; format: functional
# Mu-type opioid receptor = Mu-type opioid receptor (Homo sapiens, UniProt P35372); test: SAR Analysis of Antagonists of the MOR Receptor using an Image-Based Assay - Set 3. [Related pubchem assays (depositor defined):AID1777, AID1785, AID1786, AID1966, AID2133, AID2136, AID2284, AID2285, AID2420]; format: functional
# [15] = target: Delta-type opioid receptor (Homo sapiens, UniProt P41143); test: SAR Analysis of Antagonists of the DOR Receptor using an Image-Based Assay - Set 3. [Related pubchem assays (depositor defined):AID1777, AID1785]; format: functional;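 further: U2OS cells expressing DOR1 and beta-arrestin GFP stimulated with 100 nM SNC80; imaging of GFP-tagged beta-arrestin moving into spots after receptor activation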
# [16] = HepG2 cell cytotoxicity, dose response, cytotoxicity control for non-replicating M. tuberculosis project (AID 489018); format: functional; conditions: Mycobacterium tuberculosis
# [17] = target: Eukaryotic translation initiation factor 4E (Mus musculus, UniProt P63073); test: blockers of eIF4G binding by eIF4E – biochemical, TR-FRET, dose response (AID 855); format: functional;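 further: potency for disrupting eIF4E binding to eIF4GI seen as loss of FRET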
# [18] = Vero E6 cell cytotoxicity, dose response, cytotoxicity control for non-replicating M. tuberculosis project, secondary assay (AID 492998); format: functional, VeroE6; conditions: Vero C1008
# cells = format: functional
# [19] = loss of viability in HepG2 cells – cell-based, CellTiter-Glo, cherry-picked, cytotoxicity control for Shn3 inhibitor project, dose response (AID 624134); format: functional
# [20] = Trypanosoma cruzi growth suppression in host cells – NIH3T3 host cells, beta-gal luminescence, confirmation (AID 2044); format: functional, cell-based;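 further: intracellular parasites grown in NIH/3T3 mouse fibroblasts as host cells; luminescent beta-galactosidase reporter signal from transgenic T. cruzi replicating inside host cells; inhibitors lower the luminescence signal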
# [21] = reduction of Shn3 3'UTR-driven luciferase in osteoblasts – cell-based, Clone20 osteoblasts, firefly luciferase, cherry-picked, dose response (AID 624132); format: functional;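 further: firefly luciferase luminescence from reporter carrying the Shn3 3'UTR in osteoblasts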
# [22] = NIH3T3 cell viability loss – ATP luminescence, mouse fibroblasts, counter-screen, dose response (AID 2010); format: functional, cell-based;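 further: cells exposed to compound for about 90 hours before reading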
# [23] = non-specific 3'UTR reporter inhibition in Clone20-Shn3RL – cell-based, Renilla luciferase, cherry-picked, counter-screen for Shn3 inhibitor project, dose response (AID 624133); format: functional
# Ion channel NompC = Ion channel NompC (Danio rerio, UniProt Q7T1G6); test: Dose response cell-based high-throughput screening assay for agonists of the transient receptor potential channel N1 (TRPN1). [Related pubchem assays (depositor defined):AID1424, AID1448]; format: functional
# Mucolipin-3 = Mucolipin-3 (Homo sapiens, UniProt Q8TDD5); test: Fluorescence counterscreen assay for […] agonists: dose response cell-based high-throughput screening assay to identify agonists of the transient receptor potential channel ML3 (TRPML3). [Related pubchem assays: 1424, 1448 ]; format: functional
# [24] = THP-1 cell cytotoxicity, dose response, cytotoxicity control for non-replicating M. tuberculosis project (AID 489025); format: functional
# T4 sequence (P41145 whole entry): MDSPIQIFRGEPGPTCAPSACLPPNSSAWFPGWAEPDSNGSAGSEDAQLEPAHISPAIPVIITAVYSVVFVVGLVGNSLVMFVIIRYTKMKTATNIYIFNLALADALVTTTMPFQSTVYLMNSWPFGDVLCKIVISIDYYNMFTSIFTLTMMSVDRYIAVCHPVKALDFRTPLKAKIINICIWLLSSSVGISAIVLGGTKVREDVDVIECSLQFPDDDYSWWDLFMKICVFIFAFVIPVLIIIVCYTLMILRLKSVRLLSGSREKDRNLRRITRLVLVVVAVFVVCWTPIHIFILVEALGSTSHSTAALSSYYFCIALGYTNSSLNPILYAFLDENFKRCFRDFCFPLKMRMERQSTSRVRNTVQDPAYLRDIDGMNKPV
# T3 sequence (Q00975 whole entry): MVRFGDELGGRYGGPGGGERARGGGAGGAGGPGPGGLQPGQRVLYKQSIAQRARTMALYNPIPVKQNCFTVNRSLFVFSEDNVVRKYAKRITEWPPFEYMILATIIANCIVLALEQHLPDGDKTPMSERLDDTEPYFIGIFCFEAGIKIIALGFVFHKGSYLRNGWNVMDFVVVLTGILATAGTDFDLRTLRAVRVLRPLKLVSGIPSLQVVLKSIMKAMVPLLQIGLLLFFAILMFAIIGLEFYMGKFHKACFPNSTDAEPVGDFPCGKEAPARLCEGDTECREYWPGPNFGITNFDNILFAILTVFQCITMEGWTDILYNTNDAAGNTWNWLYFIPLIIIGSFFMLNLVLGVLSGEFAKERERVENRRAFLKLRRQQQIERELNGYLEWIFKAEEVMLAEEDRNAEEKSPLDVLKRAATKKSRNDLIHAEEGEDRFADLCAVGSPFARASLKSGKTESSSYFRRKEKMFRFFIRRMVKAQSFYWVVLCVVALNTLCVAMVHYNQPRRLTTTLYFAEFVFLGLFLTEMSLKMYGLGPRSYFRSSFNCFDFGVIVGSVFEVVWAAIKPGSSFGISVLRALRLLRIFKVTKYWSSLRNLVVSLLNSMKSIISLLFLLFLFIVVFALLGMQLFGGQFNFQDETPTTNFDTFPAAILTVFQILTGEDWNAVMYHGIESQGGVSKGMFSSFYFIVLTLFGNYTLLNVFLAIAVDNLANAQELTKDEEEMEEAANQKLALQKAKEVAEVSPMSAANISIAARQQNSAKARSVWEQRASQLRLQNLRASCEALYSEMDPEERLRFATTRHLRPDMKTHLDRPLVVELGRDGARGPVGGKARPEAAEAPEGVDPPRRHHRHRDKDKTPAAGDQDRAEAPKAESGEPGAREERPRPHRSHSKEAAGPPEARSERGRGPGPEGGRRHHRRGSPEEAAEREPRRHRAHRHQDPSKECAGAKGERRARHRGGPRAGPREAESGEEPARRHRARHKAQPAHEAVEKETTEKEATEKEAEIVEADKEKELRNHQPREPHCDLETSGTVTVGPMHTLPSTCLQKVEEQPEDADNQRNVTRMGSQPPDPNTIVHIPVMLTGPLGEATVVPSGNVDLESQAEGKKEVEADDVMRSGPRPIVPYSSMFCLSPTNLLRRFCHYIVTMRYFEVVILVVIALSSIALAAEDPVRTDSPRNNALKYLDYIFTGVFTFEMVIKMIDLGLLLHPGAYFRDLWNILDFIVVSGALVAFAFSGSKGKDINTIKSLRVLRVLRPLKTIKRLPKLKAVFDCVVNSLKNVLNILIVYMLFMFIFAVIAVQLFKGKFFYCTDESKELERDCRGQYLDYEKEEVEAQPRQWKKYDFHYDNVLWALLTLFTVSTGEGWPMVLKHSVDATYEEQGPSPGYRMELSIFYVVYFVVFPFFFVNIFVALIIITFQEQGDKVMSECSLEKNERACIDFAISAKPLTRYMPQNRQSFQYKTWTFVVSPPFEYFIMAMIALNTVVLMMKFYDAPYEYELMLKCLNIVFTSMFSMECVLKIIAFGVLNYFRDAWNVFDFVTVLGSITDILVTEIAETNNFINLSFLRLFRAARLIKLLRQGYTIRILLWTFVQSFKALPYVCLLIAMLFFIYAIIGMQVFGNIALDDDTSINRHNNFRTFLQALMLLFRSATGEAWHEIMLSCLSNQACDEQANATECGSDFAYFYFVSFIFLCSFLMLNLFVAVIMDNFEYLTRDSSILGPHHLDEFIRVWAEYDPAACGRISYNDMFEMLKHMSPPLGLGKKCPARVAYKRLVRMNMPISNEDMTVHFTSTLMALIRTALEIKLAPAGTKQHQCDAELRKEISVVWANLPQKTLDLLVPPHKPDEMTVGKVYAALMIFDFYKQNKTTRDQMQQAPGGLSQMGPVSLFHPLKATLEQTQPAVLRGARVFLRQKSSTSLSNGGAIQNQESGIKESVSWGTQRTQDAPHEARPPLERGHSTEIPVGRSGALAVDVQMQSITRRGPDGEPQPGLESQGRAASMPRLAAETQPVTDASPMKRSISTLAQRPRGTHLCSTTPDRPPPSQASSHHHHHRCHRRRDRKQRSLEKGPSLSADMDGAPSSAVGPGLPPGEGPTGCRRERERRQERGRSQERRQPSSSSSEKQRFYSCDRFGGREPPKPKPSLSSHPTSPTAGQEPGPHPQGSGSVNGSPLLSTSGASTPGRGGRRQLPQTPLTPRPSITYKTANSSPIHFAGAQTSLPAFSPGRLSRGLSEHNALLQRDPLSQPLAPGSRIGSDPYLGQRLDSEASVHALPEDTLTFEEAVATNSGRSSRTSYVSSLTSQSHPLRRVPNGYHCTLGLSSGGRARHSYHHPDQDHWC
# T3 sequence (Q02410 whole entry): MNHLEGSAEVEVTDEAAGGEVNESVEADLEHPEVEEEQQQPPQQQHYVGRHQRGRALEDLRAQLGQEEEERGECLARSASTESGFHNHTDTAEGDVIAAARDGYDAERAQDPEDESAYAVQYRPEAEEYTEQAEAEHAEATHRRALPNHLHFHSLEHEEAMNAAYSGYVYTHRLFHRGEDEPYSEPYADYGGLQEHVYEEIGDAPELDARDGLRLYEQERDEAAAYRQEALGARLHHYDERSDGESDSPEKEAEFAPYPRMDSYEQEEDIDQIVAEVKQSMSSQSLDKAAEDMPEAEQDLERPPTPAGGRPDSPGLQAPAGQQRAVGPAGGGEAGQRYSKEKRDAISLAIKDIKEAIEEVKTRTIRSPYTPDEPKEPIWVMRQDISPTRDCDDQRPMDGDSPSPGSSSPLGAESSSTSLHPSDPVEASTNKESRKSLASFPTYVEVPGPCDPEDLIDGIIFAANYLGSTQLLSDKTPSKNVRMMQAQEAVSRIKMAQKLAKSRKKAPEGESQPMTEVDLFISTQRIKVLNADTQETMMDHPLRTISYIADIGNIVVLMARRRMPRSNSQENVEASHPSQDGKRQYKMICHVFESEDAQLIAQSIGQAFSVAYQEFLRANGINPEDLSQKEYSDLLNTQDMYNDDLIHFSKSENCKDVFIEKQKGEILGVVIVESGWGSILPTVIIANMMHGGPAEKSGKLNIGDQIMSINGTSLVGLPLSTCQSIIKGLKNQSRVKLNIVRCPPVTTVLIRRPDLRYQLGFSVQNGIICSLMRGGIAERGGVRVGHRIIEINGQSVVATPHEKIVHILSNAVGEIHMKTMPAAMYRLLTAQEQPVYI
# Chain of Mu-type opioid receptor (P35372 whole entry): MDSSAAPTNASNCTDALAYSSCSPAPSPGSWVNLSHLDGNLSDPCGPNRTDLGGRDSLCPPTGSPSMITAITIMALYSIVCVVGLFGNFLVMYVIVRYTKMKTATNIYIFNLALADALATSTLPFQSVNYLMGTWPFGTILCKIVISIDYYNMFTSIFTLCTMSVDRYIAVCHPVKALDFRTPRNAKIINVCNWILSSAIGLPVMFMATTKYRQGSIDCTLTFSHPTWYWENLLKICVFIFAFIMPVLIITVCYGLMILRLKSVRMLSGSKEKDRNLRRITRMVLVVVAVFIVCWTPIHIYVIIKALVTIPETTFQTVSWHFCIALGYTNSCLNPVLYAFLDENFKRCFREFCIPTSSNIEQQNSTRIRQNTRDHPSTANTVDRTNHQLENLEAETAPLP
# Chain of Delta-type opioid receptor (P41143 whole entry): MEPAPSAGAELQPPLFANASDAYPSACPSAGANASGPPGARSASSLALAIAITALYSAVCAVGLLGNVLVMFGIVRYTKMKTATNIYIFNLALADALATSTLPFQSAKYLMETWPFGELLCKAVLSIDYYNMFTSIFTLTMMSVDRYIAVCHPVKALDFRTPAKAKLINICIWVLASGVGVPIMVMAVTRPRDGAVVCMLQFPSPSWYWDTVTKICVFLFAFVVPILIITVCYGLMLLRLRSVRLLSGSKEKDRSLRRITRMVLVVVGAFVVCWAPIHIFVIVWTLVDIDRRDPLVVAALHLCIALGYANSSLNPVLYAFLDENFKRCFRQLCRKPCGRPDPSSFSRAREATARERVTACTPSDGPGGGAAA
# Chain of Paired box protein Pax-8 (Q06710 whole entry): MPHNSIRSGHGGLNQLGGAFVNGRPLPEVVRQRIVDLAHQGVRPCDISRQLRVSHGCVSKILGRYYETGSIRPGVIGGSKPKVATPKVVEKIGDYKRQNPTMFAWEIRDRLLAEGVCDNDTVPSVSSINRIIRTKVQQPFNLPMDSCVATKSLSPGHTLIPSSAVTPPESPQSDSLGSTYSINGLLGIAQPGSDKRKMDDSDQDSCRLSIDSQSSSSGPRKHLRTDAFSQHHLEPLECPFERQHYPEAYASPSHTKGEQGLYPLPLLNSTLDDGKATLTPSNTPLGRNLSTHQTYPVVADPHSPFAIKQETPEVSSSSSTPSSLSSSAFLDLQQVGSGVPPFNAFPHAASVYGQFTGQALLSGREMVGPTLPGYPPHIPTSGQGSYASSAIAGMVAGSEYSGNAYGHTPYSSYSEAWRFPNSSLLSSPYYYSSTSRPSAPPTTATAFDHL
# Chain of Eukaryotic translation initiation factor 4E (P63073 whole entry): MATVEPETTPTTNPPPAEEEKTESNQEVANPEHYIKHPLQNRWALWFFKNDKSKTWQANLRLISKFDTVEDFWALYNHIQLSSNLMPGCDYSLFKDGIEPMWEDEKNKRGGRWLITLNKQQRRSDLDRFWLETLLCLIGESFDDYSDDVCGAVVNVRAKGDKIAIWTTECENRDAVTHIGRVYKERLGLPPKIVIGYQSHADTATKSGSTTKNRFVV
smiles,measurement,setting,value
COc1ccc(N(C(=O)CCl)C(C(=O)NCCc2ccccc2)c2cccs2)cc1 (centres undefined),EC50,Protein RecA,0.327 µM (active)
same,AC50,[1],4.64 µM (active)
same,EC50,BJ [2],4.61 µM (active)
same,CC50,[3],0.43 µM (active)
same,AC50,Paired box protein Pax-8,2.44 µM (active)
same,EC50,BJ [4],2.97 µM (inconclusive)
same,EC50,[5],1.1 µM (active)
same,EC50,BJ [6],2.69 µM (active)
same,AC50,[7],2.64 µM (active)
same,EC50,[8],0.986 µM (active)
same,EC50,BJ [9],1.22 µM (active)
same,EC50,[10],2.62 µM (active)
CC(=O)c1cccc(NC(=O)c2cc(-c3ccc(C)cc3)on2)c1,IC50,[11],15.5 µM (active)
same,IC50,[12],> 50 µM (inactive)
COc1ccc(N2CCN(CCCNC(=O)Cn3c(=O)c4cccn4c4cc(Br)cnc43)CC2)cc1,IC50,[13],3.05 µM (active)
same,IC50,[14],0.693 µM (active)
same,IC50,Mu-type opioid receptor,10.3 µM (inactive)
same,IC50,[15],> 32 µM (inactive)
Cc1cc(N2CCCCC2)nc(NCc2ccccc2)n1,CC50,[16],> 20 µM (active)
same,IC50,[17],> 64 µM (inactive)
same,CC50,[18],> 20 µM (active)
same,EC50,BJ [2],> 75 µM (inconclusive)
same,IC50,cells,40.2 µM (active)
same,AC50,[19],54.8 µM (active)
same,EC50,[20],2.04 µM (active)
same,AC50,[21],4.01 µM (active)
same,EC50,[22],> 60 µM (not active)
same,AC50,[23],6.27 µM (active)
same,EC50,BJ [4],21.4 µM (active)
same,EC50,Ion channel NompC,> 3.32 µM (inactive)
same,EC50,BJ [9],17.4 µM (active)
same,EC50,[10],25.9 µM (active)
same,EC50,Mucolipin-3,> 3.32 µM (active)
same,CC50,[24],8.56 µM (active)
